For experiment [1], the system named is RNA polymerase (RNAP) in E. coli MC1061. The experiment in a line: High-throughput growth-based screen with NGS (enrichment value) for RNA polymerase inhibition. Format: cell-based. As to conditions: log2 of frequency post-IPTG / frequency in cloning transformation library, single mutant library. In short, it runs like this:
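E. coli MC1061 carrying ubonodin single/double variant plasmid libraries was grown and induced with 10 µM or 100 µM IPTG; surviving colonies were sequenced by NGS. Enrichment value = log2 of variant frequency post-IPTG over frequency in the cloning transformation library; depletion indicates RNAP inhibition.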

The test system of another experiment is B. cenocepacia AU24362. More on the design: method as in PMID 35802499. As to conditions: spot-on-lawn assay; cited from earlier work.

Molecules are shown by their SMILES. Converted amounts (≈) assume the structure as drawn. Where a SMILES comes first, the peptide text is derived from it.

Text for B. cenocepacia AU24362: We proceeded to test the antimicrobial activity of the selected variants against two clinical isolates of the Bcc, B. cenocepacia AU0756 and B. cenocepacia AU24362, in broth microdilution assays. […] We revisited these measurements using broth microdilution assays following the Clinical & Laboratory Standards Institute (CLSI) standard.

On to `CC[C@H](C)[C@@H]1NC(=O)[C@H](CO)NC(=O)CNC(=O)[C@H](CC(=O)O)NC(=O)CNC(=O)CNC(=O)CC[C@@H](C(=O)N[C@@H](Cc2ccc(O)cc2)C(=O)N[C@@H](Cc2ccccc2)C(=O)N[C@@H](CC(N)=O)C(=O)N[C@@H](CCCNC(=N)N)C(=O)N2CCC[C@H]2C(=O)N[C@@H](CCSC)C(=O)N[C@@H](Cc2c[nH]cn2)C(=O)N[C@H](C(=O)N[C@@H](Cc2c[nH]cn2)C(=O)N[C@@H](CC(=O)O)C(=O)N[C@@H](Cc2c[nH]c3ccccc23)C(=O)N[C@@H](CCC(N)=O)C(=O)N[C@H](C(=O)N[C@@H](CCSC)C(=O)N[C@@H](CC(=O)O)C(=O)N[C@@H](CO)C(=O)NCC(=O)N[C@@H](Cc2ccc(O)cc2)C(=O)N[C@@H](Cc2ccc(O)cc2)C(=O)NCC(=O)O)[C@@H](C)CC)[C@@H](C)CC)NC(=O)[C@H](C)NC1=O` [WT, ubonodin] (HELM PEPTIDE1{G.G.D.G.S.I.A.E.Y.F.N.R.P.M.H.I.H.D.W.Q.I.M.D.S.G.Y.Y.G}$PEPTIDE1,PEPTIDE1,1:R1-8:R3$$$V2.0; C-terminus assumed), for which the results for the Enrichment value in experiment [1] (induction with 10 μM IPTG) and in experiment [1] (induction with 100 μM IPTG) were −4.2 and −4.3, respectively. The “MIC against strain AU24362” value in the experiment on B. cenocepacia AU24362 is 20 µM (≈ 64 µg/mL).
